# Ends that are not written are not given here.
# Experiments:
# INS-1E cells [1] = test: Cell counting (trypan blue) / proliferation and cluster formation; format: cell-based, rat; conditions: 24 h
# Protocol: FIG. 7, comprising FIG. 7A through FIG. 7G, depicts the evaluation of the biological activity of HSA-28P in INS-1E cells. FIG. 7A depicts dose-response analysis of the effect of HSA-28P on the rate of insulin secretion in INS-1E cells. The INS-1E cells were grown and trypsinized as described in Methods. Subsequently, cells were mixed with the indicated concentrations of HSA-28P (red columns), non-relevant peptide nanoparticles (NRPNP, green columns), and naked nanoparticles (NP, blue columns) and were seeded in 12-well plates. After 24 h the cells were taken to a GSIS in the presence of 2.5 mM (weak color bars) or 16.7 mM (strong color bars) glucose. FIG. 7B depicts time-course analysis of the effect of HSA-28P on the rate of insulin secretion in INS-1E cells. The INS-1E cells were prepared for the experiment as described above with 1.34 μM of both HSA-28P or NRPNP, and 0.76 μg/ml of NP. After incubation for the time indicated in the graph, the cells were taken to a GSIS as described in Methods. FIG. 7C depicts the measurement of insulin content. The RIA-assay was performed for INS-1E lysates. […] INS-1E cells were treated as described in Panel D. Cells were detached by trypsin and counted as described in Methods and then were visualized with a Cells Sense Live Imaging microscope. […]
# Cells were detached by trypsin and colored by Trypan blue. Only uncolored cells were counted. […]
# INS-1E cells [2] = test: Insulin secretion of INS-1E cells after 5 h incubation with peptidomimetic agent; format: cell-based, rat
# Protocol: FIG. 22, comprising FIG. 22A through FIG. 22C, depicts experimental results of incubation of INS1E cells with peptidomimetic agent. A peptidomimetic agent was designed to mimic neuroligin's binding site for neurexin. Monomers and dimers had no effect on insulin secretion. Multiple dimers were conjugated to PEG-2000 to simulate clustering (reagent HSA-112). Dimers were also clustered on nanoparticles (HSA-637). FIG. 22A depicts INS-1E cells were incubated for 5 h with HSA-112 (blue columns) or HSA-637 (purple) at different concentrations or with vehicle alone (black), washed, and then tested for insulin secretion at 3 mM glucose (striped columns) or at 20 mM glucose (solid columns). […] FIG. 22B depicts a time course: insulin secretion was analyzed after the number of hours indicated following a 5 h incubation with 100 μM HSA-112 (blue), 500 nM HSA-637 (purple) or vehicle alone (black). Incubations were with 3 mM glucose (striped columns) or 20 mM glucose (solid columns). FIG. 22C depicts microscopy where INS-1E cells were incubated with HSA-637 conjugated to a fluorescent dye (Cy5, red) and then washed. Membranes were stained with Alexa Fluor 488 (green). For better visualization, microscopy was in hypotonic saline causing the INS-1E cells to swell and become more rounded.
substance,measurement,setting,value
"HSA-112: HSA-28 dimer formed by bridging two HSA-28 monomers via amide bond formation with active ester PEG2,000 (QQGEFLNYD-NH2; not fully specified (N-terminus); also: dimer of two HSA-28 monomers bridged via amide bonds with active ester PEG2000)",amount of cells / proliferation rate,INS-1E cells [1],higher than that in the control dishes
same,concentration that significantly increased glucose-stimulated insulin secretion,"INS-1E cells [2]; 5 h incubation, 20 mM glucose, p<0.05",≥ 20 µM
same,effect on insulin secretion,INS-1E cells [2]; INS-1 β cells,increased insulin secretion in a dose-dependent manner

# From patent publication US20230079439A1, “Compositions and Methods for Enhancing Beta Cell Maturation, Health and Function” (THE REGENTS OF THE UNIVERSITY OF CALIFORNIA, priority 2016, published 2023)
